Laboratory results from patent publication US4559348A, “5- And/or 7-substituted pyrazolo-[4,3-b]-pyridines and their use as antiinflammatory agents” (Beecham Group, p.l.c., priority 1983, dated 1985).

Tests used:
[1] = Croton Oil Test (topical anti-inflammatory activity); format: in vivo, rat (Charles River Wistar); settings: 1 mg/ear, 6 hours
Procedure: Compounds were tested for anti-inflammatory activity in a topical model based on that described by Fregnan G. B. and Torsello, A. L. (1975), Current Therapeutic Research 17, No. 4, 375-381. In outline the method is as follows:
Rats, Charles River Wistar Strain, female, 10/group. Weight range 200-240 g.
Irritant solution applied consists of 1% croton oil in tetrahydrofuran. 0.05 ml is placed on each ear, compound being included in the irritant solution on one ear. 6 hours later the ears are removed by cutting along the hairline and weighed.
-ve control--no irritant solution.
+ve control--irritant solution on both ears.

[2] = Quinone Quantal Writhing Test (analgesic activity); format: in vivo; settings: 50 mg/kg po
Procedure: L. C. Hendershot and J. Fersaith, J. Pharmac. exp. Therap. 1959, 125, 237-240.
Compounds 1 and 2 had analgesic activity giving 10 and 50 percent inhibition respectively at a dose of 50 mg/kg po.

[3] = Carrageenin Test (paw volume); format: in vivo, rat (OLAC Wistar); settings: 3 hours after carrageenin
Procedure: Groups of 8 OLAC Wistar male rats (140-170 g) received the Compounds orally 1 hour before 0.1 ml of 0.5% λ carrageenin injected into the right hind paw. Paw volumes were measured by mercury displacement 3 hours after carrageenin.

[4] = Mouse Oxazolone Screen (topical anti-inflammatory activity); format: in vivo; settings: 24 hr after challenge; for inhibition in vivo at 200 µg/ear: 200 μg/ear; for inhibition in vivo at 100 µg/ear: 100 μg/ear
Procedure: Compounds were tested for topical anti-inflammatory activity in a mouse oxazolone screen, by a method modified from that of Dietrich and Hess [Int. Arch. Allergy, 38, 246 (1970)].
Mice were sensitised with oxazolone (2 mg in EtOH) on a shaved area of the abdomen, and then challenged with oxazolone (100 μg) with or without the test compound on the left ear 5 days later.

[5] = Rat Cantharidin Screen (topical anti-inflammatory activity); format: in vivo; settings: 72 hrs
Procedure: Compounds were tested for topical anti-inflammatory activity in a cantharidin rat ear screen, by a method described by A. Boris et al, [J. Invest. Dermatol. 68, 161 (1977)].
Cantharidin (450 μg) in a suitable solvent, such as methanol or tetrahydrofuran applied topically to one rat ear, causes severe inflammation giving approximately double the normal weight at 72 hrs. compared to the other, untreated ear. The test compounds were applied simultaneously with cantharidin in tetrahydrofuran.

[6] = in mice; cited from earlier work

## c1cc2[nH]ncc2nc1N1CCCCC1 [Compound 1, 5-Piperidino-1H-pyrazolo(4,3-b)pyridine]
[1]
  % Inhibition: 32.9%
[2]
  percent inhibition (analgesic activity): 10%
[3]; 88 mg/kg orally
  % Inhibition: 34%

## Cc1cc(N2CCCCC2)c2[nH]ncc2n1 [Compound 2, 5-Methyl-7-piperidino-1H-pyrazolo(4,3-b)pyridine]
[1]
  % Inhibition: 34.8%
[2]
  percent inhibition (analgesic activity): 50%
[3]; 81 mg/kg orally
  % Inhibition: 41.7%

## Cc1ccc(Sc2cc(C)nc3cn[nH]c23)cc1 [Compound 3, 5-Methyl-7-(p-tolythio)-1H-pyrazolo(4,3-b)pyridine]
[4]
  inhibition in vivo at 200 µg/ear: 37%

## Cc1cc(Nc2ccccc2)c2[nH]ncc2n1 [Compound 4, 7-Anilino-5-methyl-1H-pyrazolo(4,3-b)pyridine]
[5]
  inhibition in vivo at 1 mg/ear: 42%
[4]
  inhibition in vivo at 200 µg/ear: 81%
[1]
  % Inhibition: 71.7%
[3]; 75 mg/kg orally
  % Inhibition: 40.2%

## Cc1cc(Nc2ccccc2)c2nn(C)cc2n1 [Compound 5, 7-Anilino-2,5-dimethyl-2H-pyrazolo(4,3-b)pyridine]
[5]
  inhibition in vivo at 2 mg/ear: 44%
[4]
  inhibition in vivo at 200 µg/ear: 63%

## CCOc1ccc(Nc2cc(C)nc3cn[nH]c23)cc1 [Compound 7, 7-(4-Ethoxyanilino)-5-methyl-1H-pyrazolo[4,3-b]pyridine]
[5]
  inhibition in vivo at 2 mg/ear: 25%
[4]
  inhibition in vivo at 100 µg/ear: 56%

## Cc1cc(Nc2ccccc2C)c2[nH]ncc2n1 [Compound 8, 7-(2-Methylanilino)-5-methyl-1H-pyrazolo[4,3-b]pyridine]
[5]; 0.9 mg/ear
  inhibition in vivo at 0.9 mg/ear: 56%
[4]
  inhibition in vivo at 100 µg/ear: 31%

## Cc1cc(Sc2ccccc2)c2[nH]ncc2n1 [Compound 9, 5-Methyl-7-phenylthio-1H-pyrazolo[4,3-b]pyridine]
[5]
  inhibition in vivo at 1 mg/ear: 40%
[4]
  inhibition in vivo at 100 µg/ear: 61%

## CCCCNc1cc(C)nc2cn[nH]c12 [Compound 10, 7-n-Butylamino-5-methyl-1H-pyrazolo[4,3-b]pyridine]
[5]; 0.5 mg/ear
  inhibition in vivo at 0.5 mg/ear: 76%
[4]
  inhibition in vivo at 100 µg/ear: 54%

## Cc1cc(NC2CCCCC2)c2[nH]ncc2n1 [Compound 11, 7-Cyclohexylamino-5-methyl-1H-pyrazolo[4,3-b]pyridine]
[5]
  inhibition in vivo at 1 mg/ear: 66%

## CCOc1cccc(Nc2cc(C)nc3cn[nH]c23)c1 [Compound 12, 7-(3-Ethoxyanilino)-5-methyl-1H-pyrazolo[4,3-b]pyridine]
[5]
  inhibition in vivo at 1 mg/ear: 41%

## Cc1cc(Nc2ccc(Cl)cc2)c2[nH]ncc2n1 [Compound 14, 7-(4-Chloroanilino)-5-methyl-1H-pyrazolo[4,3-b]pyridine]
[5]
  inhibition in vivo at 2 mg/ear: 27%

## COc1ccc(Nc2cc(C)nc3cn[nH]c23)cc1 [Compound 15, 7-(4-Methoxyanilino)-5-methyl-1H-pyrazolo[4,3-b]pyridine]
[5]
  inhibition in vivo at 1 mg/ear: 41%

## Cc1cc(N(C)c2ccccc2)c2[nH]ncc2n1 [Compound 17, 7-(N-Methylanilino)-5-methyl-1H-pyrazolo[4,3-b]pyridine]
[5]
  inhibition in vivo at 1 mg/ear: 31%
[4]
  inhibition in vivo at 100 µg/ear: 32%

## c1ccc(Nc2ccnc3cn[nH]c23)cc1 [Compound 19, 7-Anilino-1H-pyrazolo[4,3-b]pyridine]
[5]
  inhibition in vivo at 1 mg/ear: 50%

## Cc1cc(Nc2ccc(C(C)(C)C)cc2)c2[nH]ncc2n1 [Compound 22, 5-Methyl-7-p-t-butylanilino-1H-pyrazolo[4,3-b]pyridine]
[5]
  inhibition in vivo at 1 mg/ear: 68%

## Cc1cc(Nc2ccc(Cl)c(Cl)c2)c2[nH]ncc2n1 [Compound 24, 7-(3,4-Dichloroanilino)-5-methyl-1H-pyrazolo[4,3-b]pyridine]
[5]
  inhibition in vivo at 1 mg/ear: 29%

## CC(=O)N(C(C)=O)c1cc(C)nc2c(C)n[nH]c12 [The compound wherein R is NAc2]
[6]
  CNS antidepressant activity: having CNS antidepressant activity
